Experimental data: PubChem BioAssay (NCI)
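In this assay, cells in 96-well plates receive the compound at five concentrations for 48 hours. Endpoints are linearly interpolated between the surrounding concentrations. At the GI50, growth is halved. Definition used: TGI = concentration required for complete inhibition of growth.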

Columns and labels:
Assay in all cases: growth of human tumour cells (NCI), 48 h
NCI/ADR-RES ovarian = test system: NCI/ADR-RES ovarian
NCI-H460 lung = test system: NCI-H460 lung
UACC-257 melanoma = test system: UACC-257 melanoma
HT29 colon = test system: HT29 colon
U251 CNS = test system: U251 CNS
UO-31 renal = test system: UO-31 renal
A498 renal = test system: A498 renal
SK-MEL-5 melanoma = test system: SK-MEL-5 melanoma
SK-MEL-28 melanoma = test system: SK-MEL-28 melanoma
786-0 renal = test system: 786-0 renal
NCI-H522 lung = test system: NCI-H522 lung
HOP-62 NSCLC = test system: HOP-62 NSCLC
COLO 205 colon = test system: COLO 205 colon
SNB-19 CNS = test system: SNB-19 CNS
IGROV1 ovarian = test system: IGROV1 ovarian
MOLT-4 leukemia = test system: MOLT-4 leukemia
A549 NSCLC = test system: A549 NSCLC
RPMI-8226 leukemia = test system: RPMI-8226 leukemia
HOP-92 NSCLC = test system: HOP-92 NSCLC
SF-295 CNS = test system: SF-295 CNS
SF-268 CNS = test system: SF-268 CNS
MCF7 breast = test system: MCF7 breast
HCT-116 colon = test system: HCT-116 colon
MDA-MB-435 = test system: MDA-MB-435
HCT-15 colon = test system: HCT-15 colon
SR leukemia = test system: SR leukemia
KM12 colon = test system: KM12 colon
SNB-75 CNS = test system: SNB-75 CNS
MDA-MB-231 breast = test system: MDA-MB-231 breast
MALME-3M melanoma = test system: MALME-3M melanoma
OVCAR-3 ovarian = test system: OVCAR-3 ovarian
CAKI-1 renal = test system: CAKI-1 renal
OVCAR-5 ovarian = test system: OVCAR-5 ovarian
TK-10 renal = test system: TK-10 renal
DU-145 prostate = test system: DU-145 prostate
RXF 393 renal = test system: RXF 393 renal
HL-60(TB) leukemia = test system: HL-60(TB) leukemia
M14 melanoma = test system: M14 melanoma
HS 578T breast = test system: HS 578T breast
LOX IMVI melanoma = test system: LOX IMVI melanoma
K-562 leukemia = test system: K-562 leukemia
SK-OV-3 ovarian = test system: SK-OV-3 ovarian
OVCAR-8 ovarian = test system: OVCAR-8 ovarian
NCI-H226 lung = test system: NCI-H226 lung
PC-3 prostate = test system: PC-3 prostate
SN12C renal = test system: SN12C renal
UACC-62 melanoma = test system: UACC-62 melanoma
EKVX NSCLC = test system: EKVX NSCLC
ACHN renal = test system: ACHN renal
CCRF-CEM leukemia = test system: CCRF-CEM leukemia
NCI-H23 lung = test system: NCI-H23 lung
T-47D breast = test system: T-47D breast
OVCAR-4 ovarian = test system: OVCAR-4 ovarian
HCC-2998 colon = test system: HCC-2998 colon
SW-620 colon = test system: SW-620 colon
BT-549 breast = test system: BT-549 breast

Compound: COc1ccc([C@@H]2[C@@H](O)C(=O)N2c2cc(OC)c(OC)c(OC)c2)cc1F
- GI50 (NCI/ADR-RES ovarian): 56.2 nM
- TGI (NCI/ADR-RES ovarian): > 100000 nM
- GI50 (NCI-H460 lung): 34.4 nM
- TGI (NCI-H460 lung): > 100000 nM
- TGI (UACC-257 melanoma): > 100000 nM
- GI50 (HT29 colon): 30.5 nM
- TGI (HT29 colon): 110 nM
- GI50 (U251 CNS): 36 nM
- TGI (U251 CNS): > 100000 nM
- GI50 (UO-31 renal): 72.8 nM
- TGI (UO-31 renal): > 100000 nM
- GI50 (A498 renal): 22400 nM
- TGI (A498 renal): > 100000 nM
- GI50 (SK-MEL-5 melanoma): 35.1 nM
- TGI (SK-MEL-5 melanoma): 175 nM
- GI50 (SK-MEL-28 melanoma): 792 nM
- TGI (SK-MEL-28 melanoma): > 100000 nM
- GI50 (786-0 renal): 41.9 nM
- TGI (786-0 renal): > 100000 nM
- GI50 (NCI-H522 lung): 19.9 nM
- TGI (NCI-H522 lung): 53.7 nM
- GI50 (HOP-62 NSCLC): 58.2 nM
- TGI (HOP-62 NSCLC): > 100000 nM
- GI50 (COLO 205 colon): 30.3 nM
- TGI (COLO 205 colon): 93.3 nM
- GI50 (SNB-19 CNS): 79.9 nM
- TGI (SNB-19 CNS): > 100000 nM
- GI50 (IGROV1 ovarian): 51.5 nM
- TGI (IGROV1 ovarian): > 100000 nM
- GI50 (MOLT-4 leukemia): 45.8 nM
- TGI (MOLT-4 leukemia): > 100000 nM
- GI50 (A549 NSCLC): 44.8 nM
- TGI (A549 NSCLC): > 100000 nM
- GI50 (RPMI-8226 leukemia): 41.5 nM
- TGI (RPMI-8226 leukemia): > 21800 nM
- TGI (HOP-92 NSCLC): > 100000 nM
- GI50 (SF-295 CNS): 36.2 nM
- TGI (SF-295 CNS): > 100000 nM
- GI50 (SF-268 CNS): 98.4 nM
- TGI (SF-268 CNS): > 100000 nM
- GI50 (MCF7 breast): 35.2 nM
- TGI (MCF7 breast): > 100000 nM
- GI50 (HCT-116 colon): 33.9 nM
- TGI (HCT-116 colon): > 100000 nM
- GI50 (MDA-MB-435): 23.1 nM
- TGI (MDA-MB-435): 57.5 nM
- GI50 (HCT-15 colon): 35.9 nM
- TGI (HCT-15 colon): > 100000 nM
- GI50 (SR leukemia): 33.4 nM
- TGI (SR leukemia): > 100000 nM
- GI50 (KM12 colon): 36.8 nM
- TGI (KM12 colon): > 100000 nM
- GI50 (SNB-75 CNS): 45.6 nM
- TGI (SNB-75 CNS): > 100000 nM
- GI50 (MDA-MB-231 breast): 49.1 nM
- TGI (MDA-MB-231 breast): > 100000 nM
- GI50 (MALME-3M melanoma): 79.1 nM
- TGI (MALME-3M melanoma): > 100000 nM
- GI50 (OVCAR-3 ovarian): 29.9 nM
- TGI (OVCAR-3 ovarian): 114 nM
- GI50 (CAKI-1 renal): 46.3 nM
- TGI (CAKI-1 renal): > 61600 nM
- GI50 (OVCAR-5 ovarian): 49.6 nM
- TGI (OVCAR-5 ovarian): > 100000 nM
- GI50 (TK-10 renal): > 100000 nM
- TGI (TK-10 renal): > 100000 nM
- GI50 (DU-145 prostate): 39.5 nM
- TGI (DU-145 prostate): > 100000 nM
- GI50 (RXF 393 renal): 30.5 nM
- GI50 (HL-60(TB) leukemia): 32.9 nM
- TGI (HL-60(TB) leukemia): 207 nM
- GI50 (M14 melanoma): 35 nM
- TGI (M14 melanoma): > 100000 nM
- GI50 (HS 578T breast): 57.6 nM
- TGI (HS 578T breast): > 100000 nM
- GI50 (LOX IMVI melanoma): 38.1 nM
- TGI (LOX IMVI melanoma): > 100000 nM
- GI50 (K-562 leukemia): 38.1 nM
- TGI (K-562 leukemia): > 100000 nM
- GI50 (SK-OV-3 ovarian): 55.9 nM
- TGI (SK-OV-3 ovarian): > 84600 nM
- GI50 (OVCAR-8 ovarian): 40.7 nM
- TGI (OVCAR-8 ovarian): > 100000 nM
- GI50 (NCI-H226 lung): 34.5 nM
- TGI (NCI-H226 lung): 432 nM
- GI50 (PC-3 prostate): 54.6 nM
- TGI (PC-3 prostate): > 100000 nM
- GI50 (SN12C renal): 50.4 nM
- TGI (SN12C renal): > 100000 nM
- GI50 (UACC-62 melanoma): 48.7 nM
- TGI (UACC-62 melanoma): > 100000 nM
- GI50 (EKVX NSCLC): > 100000 nM
- TGI (EKVX NSCLC): > 100000 nM
- GI50 (ACHN renal): 56.8 nM
- TGI (ACHN renal): > 100000 nM
- GI50 (CCRF-CEM leukemia): 42.6 nM
- TGI (CCRF-CEM leukemia): > 100000 nM
- GI50 (NCI-H23 lung): 52.5 nM
- TGI (NCI-H23 lung): > 100000 nM
- GI50 (T-47D breast): > 55200 nM
- TGI (T-47D breast): > 100000 nM
- GI50 (OVCAR-4 ovarian): 686 nM
- TGI (OVCAR-4 ovarian): > 100000 nM
- GI50 (HCC-2998 colon): 48.5 nM
- TGI (HCC-2998 colon): > 100000 nM
- GI50 (SW-620 colon): 45.9 nM
- TGI (SW-620 colon): > 100000 nM
- GI50 (BT-549 breast): 29.4 nM
- TGI (BT-549 breast): 203 nM
